Data as given in patent US20200276150A1, “PARENTERAL FORMULATIONS OF MACROLIDE ANTIBIOTICS” (Tetard, Inc., priority 2010, published 2020).

Experiment: HPLC assay and impurity levels, autoclaved and non-autoclaved samples (Example 7)
Type: physicochemical
Conditions: standard, no condition given
Description: EXAMPLE 7. Characterization of Unbuffered Formulation C Solutions with Nitrogen […] and with the Inclusion of an Antioxidant with or without a Chelating Agent. Development studies were conducted using Formulation C, Example C, and its corresponding placebo formulation. The table below details the composition of Formulation C active formulation and corresponding placebo. The solutions above were prepared by first dissolving the stabilizers in the vehicle (60 mM Tartaric acid) which was pre-prepared in nitrogen sparged water. Once dissolved, the CEM-101 API was then added slowly and allowed to mix until a complete solution was achieved. Formulations prepared were then filled into vials, crimped with an aluminium cap containing a PTFE septum and then autoclaved. Each vial was nitrogen purged prior to crimping. HPLC analyses were performed on both autoclaved and non-autoclaved samples. Refer to results in the table below for summary data on assay and impurities.

Compound: CC[C@H]1OC(=O)[C@@](C)(F)C(=O)[C@H](C)[C@@H](O[C@@H]2O[C@H](C)C[C@H](N(C)C)[C@H]2O)[C@@](C)(OC)C[C@@H](C)C(=O)[C@H](C)[C@H]2N(CCCCn3cc(-c4cccc(N)c4)nn3)C(=O)O[C@]12C [STD 0.5 mg/mL]
- Total Impurities: 1.867
